Where two headings read alike, the source gives them in different places.
Assays:
A2780 cells = assay: In-vitro cell proliferation assay (SRB), A2780 cells; format: cell-based; conditions: Homo sapiens, A2780, 72 h, A2780 cells, 72 hours, read-out: A2780 IC50
In short: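 Proliferation is assessed by sulforhodamine B staining following a 72-hour incubation with compound dilutions containing 0.1% DMSO.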

NAMPT = biological target: T1, NAMPT (Homo sapiens, UniProt P43490); assay: Biochemical inhibition assay: NAMPT enzymatic reaction, NMN quantified by mass spectrometry; conditions: read-out: Biochem IC50
T1 construct: His tag; host or cells: E. coli
T1 sequence (P43490 whole entry): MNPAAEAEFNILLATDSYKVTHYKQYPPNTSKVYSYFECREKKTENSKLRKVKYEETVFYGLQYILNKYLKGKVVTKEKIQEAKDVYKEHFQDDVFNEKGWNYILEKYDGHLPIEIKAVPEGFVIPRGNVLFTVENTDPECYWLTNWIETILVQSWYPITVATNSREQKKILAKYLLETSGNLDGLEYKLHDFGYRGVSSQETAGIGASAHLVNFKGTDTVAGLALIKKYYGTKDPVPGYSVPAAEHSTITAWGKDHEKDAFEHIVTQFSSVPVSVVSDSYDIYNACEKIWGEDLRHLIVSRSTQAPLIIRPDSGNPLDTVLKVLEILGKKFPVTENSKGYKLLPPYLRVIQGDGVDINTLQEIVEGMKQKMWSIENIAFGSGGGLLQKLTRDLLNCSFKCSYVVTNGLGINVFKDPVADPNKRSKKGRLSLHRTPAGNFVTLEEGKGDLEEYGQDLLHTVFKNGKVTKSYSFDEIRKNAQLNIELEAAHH
In short: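 Inhibition of E. coli-expressed His-tagged human NAMPT, measured as NMN formation by mass spectrometry after a 30 min room-temperature reaction containing 1 μM NAM, 100 μM PRPP and 2.5 mM ATP.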

| Compound | IC50 (A2780 cells; SRB) | IC50 (NAMPT; NAMPT enzymatic assay) | IC50 (NAMPT; NAMPT enzymatic reaction) | IC50 (A2780 cells; SRB assay) |
| --- | --- | --- | --- | --- |
| O=C(NCc1ccc(S(=O)(=O)c2cncc(F)c2)cc1)c1cnc2nccn2c1 [N-{[4-(5-fluoropyridine-3-sulfonyl)phenyl]methyl}imidazo[1,2-a]pyrimidine-6-carboxamide] | 56.4 nM | 6.7 nM | – | – |
| CCc1cccc(S(=O)(=O)c2ccc(CNC(=O)c3cc4ccncc4o3)cc2)c1 [N-({4-[(3-ethylbenzene)sulfonyl]phenyl}methyl)furo[2,3-c]pyridine-2-carboxamide] | 6.5 nM | – | 8.7 nM | – |
| COc1c(F)cccc1S(=O)(=O)c1ccc(CNC(=O)c2cnc3nccn3c2)cc1 | 100 to 1000 nM | – | 28.9 nM | – |
| O=C(NCc1ccc(S(=O)(=O)c2cnc(N3CCCC3)s2)cc1)c1cc2ccncc2s1 [N-({4-[2-(pyrrolidin-1-yl)-1,3-thiazole-5-sulfonyl]phenyl}methyl)thieno[2,3-c]pyridine-2-carboxamide] | 0.7 nM | 1.5 nM | – | – |
| CCCCc1ccc(S(=O)(=O)c2ccc(CNC(=O)c3ccc4nccn4c3)cc2)cc1 | 7.6 nM | – | 5.7 nM | – |
| CC(C)Oc1ccc(S(=O)(=O)c2ccc(CNC(=O)c3cc4ccncc4o3)cc2)cc1 | 5.7 nM | 6.8 nM | – | – |
| COc1cc(F)c(F)cc1S(=O)(=O)c1ccc(CNC(=O)c2cnc3nccn3c2)cc1 | 24.9 nM | – | 11.9 nM | – |
| O=C(NCc1ccc(S(=O)(=O)c2cccc3cccnc23)cc1)c1cc2ccncc2o1 [N-{[4-(quinoline-8-sulfonyl)phenyl]methyl}furo[2,3-c]pyridine-2-carboxamide] | 6 nM | 7.6 nM | – | – |
| O=C(NCc1ccc(S(=O)(=O)c2ccccc2)cc1)c1ccc2cnccc2n1 [N-{[4-(benzenesulfonyl)phenyl]methyl}-1,6-naphthyridine-2-carboxamide] | > 10000 nM | 2850 nM | – | – |
| O=C(NCc1ccc(S(=O)(=O)c2ccc(F)cc2Cl)cc1)c1cnc2nccn2c1 | 100 to 1000 nM | – | 14.4 nM | – |
| CCCOc1ccc(Cl)cc1S(=O)(=O)c1ccc(CNC(=O)c2cnc3[nH]ncc3c2)cc1 [N-({4-[(5-chloro-2-propoxybenzene)sulfonyl]phenyl}methyl)-1H-pyrazolo[3,4-b]pyridine-5-carboxamide] | 25.1 nM | – | 49.2 nM | – |
| O=C(NCc1ccc(S(=O)(=O)c2cccc(N3CCOCC3)c2)cc1)c1ccc2nccn2c1 | 3.3 nM | 7.7 nM | – | – |
| CCOc1cc(F)ccc1S(=O)(=O)c1ccc(CNC(=O)c2cc3ccncc3s2)cc1 | 0.9 nM | – | 3.8 nM | – |
| CCOc1cc(F)ccc1S(=O)(=O)c1ccc(CNC(=O)c2cc3cnccc3[nH]2)cc1 [N-({4-[(2-ethoxy-4-fluorobenzene)sulfonyl]phenyl}methyl)-1H-pyrrolo[3,2-c]pyridine-2-carboxamide] | 1.8 nM | – | 3.4 nM | – |
| Cc1c(Cl)cccc1S(=O)(=O)c1ccc(CNC(=O)c2cc3cnccc3[nH]2)cc1 | 12 nM | – | 62.5 nM | – |
| COc1ccc(S(=O)(=O)c2ccc(CNC(=O)c3cnc4nccn4c3)cc2)cc1F [N-({4-[(3-fluoro-4-methoxybenzene)sulfonyl]phenyl}methyl)imidazo[1,2-a]pyrimidine-6-carboxamide] | 8.3 nM | – | 1.7 nM | – |
| O=C(NCc1ccc(S(=O)(=O)c2cccc(CN3CCCCC3)c2)cc1)c1cnc2nccn2c1 | 30.6 nM | 1.9 nM | – | – |
| N#Cc1ccc(S(=O)(=O)c2ccc(CNC(=O)c3cc4ccncc4o3)cc2)cc1 [N-({4-[(4-cyanobenzene)sulfonyl]phenyl}methyl)furo[2,3-c]pyridine-2-carboxamide] | 30.9 nM | – | 5.3 nM | – |
| N#Cc1cccc(S(=O)(=O)c2ccc(CNC(=O)c3cc4ccncc4o3)cc2)c1 [N-({4-[(3-cyanobenzene)sulfonyl]phenyl}methyl)furo[2,3-c]pyridine-2-carboxamide] | 12.6 nM | – | 15.4 nM | – |
| O=C(NCc1ccc(S(=O)(=O)c2ccccc2Cl)cc1)c1cnc2[nH]ncc2c1 [N-({4-[(2-chlorobenzene)sulfonyl]phenyl}methyl)-1H-pyrazolo[3,4-b]pyridine-5-carboxamide] | 100 to 1000 nM | – | 92.5 nM | – |
| COc1cc(S(=O)(=O)c2ccc(CNC(=O)c3cc4cnccc4[nH]3)cc2)ccc1F | 5.4 nM | – | 27.8 nM | – |
| CCc1ccc(S(=O)(=O)c2ccc(CNC(=O)c3cc4ccncc4o3)cc2)cc1 [N-({4-[(4-ethylbenzene)sulfonyl]phenyl}methyl)furo[2,3-c]pyridine-2-carboxamide] | 7 nM | – | 5 nM | – |
| O=C(NCc1ccc(S(=O)(=O)c2ccccc2F)cc1)c1cc2ccncc2o1 [N-({4-[(2-fluorobenzene)sulfonyl]phenyl}methyl)furo[2,3-c]pyridine-2-carboxamide] | 100 to 1000 nM | – | 41.8 nM | – |

| Compound | IC50 (A2780 cells; SRB) | IC50 (NAMPT; NAMPT enzymatic assay) | IC50 (NAMPT; NAMPT enzymatic reaction) | IC50 (A2780 cells; SRB assay) |
| --- | --- | --- | --- | --- |
| CCc1ccccc1S(=O)(=O)c1ccc(CNC(=O)c2cc3ccncc3o2)cc1 [N-({4-[(2-ethylbenzene)sulfonyl]phenyl}methyl)furo[2,3-c]pyridine-2-carboxamide] | 12.9 nM | – | 5.4 nM | – |
| O=C(NCc1ccc(S(=O)(=O)c2ccc(F)cc2C(F)(F)F)cc1)c1cnc2[nH]ncc2c1 [N-[(4-{[4-fluoro-2-(trifluoromethyl)benzene]sulfonyl}phenyl)methyl]-1H-pyrazolo[3,4-b]pyridine-5-carboxamide] | 109 nM | 112 nM | – | – |
| CCCCOc1ccc(Cl)cc1S(=O)(=O)c1ccc(CNC(=O)c2cc3cnccc3[nH]2)cc1 | 8.3 nM | – | 15.6 nM | – |
| COc1ccc(F)cc1NS(=O)(=O)c1ccc(CNC(=O)c2ccc3ncccc3c2)cc1 [N-({4-[(5-fluoro-2-methoxyphenyl)sulfamoyl]phenyl}methyl)quinoline-6-carboxamide] | 1000 to 10000 nM | 66 nM | – | – |
| COc1cc(S(=O)(=O)c2ccc(CNC(=O)c3cc4ccncc4s3)cc2)ccc1C | 1.5 nM | – | 2.7 nM | – |
| O=C(NCc1ccc(S(=O)(=O)c2cnc(N3CCCC3)s2)cc1)c1ccc2nccn2c1 [N-({4-[2-(pyrrolidin-1-yl)-1,3-thiazole-5-sulfonyl]phenyl}methyl)imidazo[1,2-a]pyridine-6-carboxamide] | 0.4 nM | 2.4 nM | – | – |
| CC(C)COc1cc(F)cc(S(=O)(=O)c2ccc(CNC(=O)c3cc4ccncc4o3)cc2)c1 [N-[(4-{[3-fluoro-5-(2-methylpropoxy)benzene]sulfonyl}phenyl)methyl]furo[2,3-c]pyridine-2-carboxamide] | 12.9 nM | 10.3 nM | – | – |
| COc1cccc(NS(=O)(=O)c2ccc(CNC(=O)c3cc4cnccc4[nH]3)cc2)c1C [N-({4-[(3-methoxy-2-methylphenyl)sulfamoyl]phenyl}methyl)-1H-pyrrolo[3,2-c]pyridine-2-carboxamide] | – | – | 30 nM | 6 nM |
| O=C(NCc1ccc(S(=O)(=O)c2cccc3c2oc2ccccc23)cc1)c1cnc2nccn2c1 | 2.9 nM | 1.7 nM | – | – |
| COc1ccc(S(=O)(=O)c2ccc(CNC(=O)c3cnc4[nH]ncc4c3)cc2)c(F)c1 | 207 nM | – | 120 nM | – |
| O=C(NCc1ccc(S(=O)(=O)c2ccc3c(c2)OCO3)cc1)c1cc2cnccc2[nH]1 [N-{[4-(2H-1,3-benzodioxole-5-sulfonyl)phenyl]methyl}-1H-pyrrolo[3,2-c]pyridine-2-carboxamide] | – | – | 8 nM | 7 nM |
| COc1ccc(C(F)(F)F)cc1S(=O)(=O)c1ccc(CNC(=O)c2cnc3nccn3c2)cc1 | 3.6 nM | 6.8 nM | – | – |
| O=C(NCc1ccc(S(=O)(=O)c2cccc(N3CCCC3)c2)cc1)c1ccc2nccn2c1 | 1.6 nM | 13.6 nM | – | – |
| Cc1cc(S(=O)(=O)c2ccc(CNC(=O)c3ccc4nccn4c3)cc2)c(C)cc1F | 11 nM | – | 44 nM | – |
| COc1cc(Cl)cc(S(=O)(=O)c2ccc(CNC(=O)c3cc4ccncc4o3)cc2)c1 | 1.5 nM | – | 26.5 nM | – |
| O=C(NCc1ccc(S(=O)(=O)Nc2ccccc2CO)cc1)c1cc2cnccc2[nH]1 [N-[(4-{[2-(hydroxymethyl)phenyl]sulfamoyl}phenyl)methyl]-1H-pyrrolo[3,2-c]pyridine-2-carboxamide] | – | – | 30 nM | 6 nM |
| CC(C)c1cccc(S(=O)(=O)c2ccc(CNC(=O)c3ccc4nccn4c3)cc2)c1 [N-[(4-{[3-(propan-2-yl)benzene]sulfonyl}phenyl)methyl]imidazo[1,2-a]pyridine-6-carboxamide] | 3.49 nM | 12.4 nM | – | – |
| CCc1ccc(S(=O)(=O)c2ccc(CNC(=O)c3cc4ccncc4s3)cc2)cc1 [N-({4-[(4-ethylbenzene)sulfonyl]phenyl}methyl)thieno[2,3-c]pyridine-2-carboxamide] | – | – | 6 nM | 7.8 nM |
| CCCOc1ccc(S(=O)(=O)c2ccc(CNC(=O)c3cc4ccncc4o3)cc2)cc1Cl | 11.9 nM | – | 4.9 nM | – |
| CCS(=O)(=O)c1cccc(S(=O)(=O)c2ccc(CNC(=O)c3cc4cnccc4[nH]3)cc2)c1 [N-[(4-{[3-(ethanesulfonyl)benzene]sulfonyl}phenyl)methyl]-1H-pyrrolo[3,2-c]pyridine-2-carboxamide] | 15.5 nM | 17 nM | – | – |
| COc1ccc(C(C)C)cc1S(=O)(=O)c1ccc(CNC(=O)c2cc3ccncc3s2)cc1 [N-[(4-{[2-methoxy-5-(propan-2-yl)benzene]sulfonyl}phenyl)methyl]thieno[2,3-c]pyridine-2-carboxamide] | – | – | 9 nM | 6.2 nM |
| O=C(NCc1ccc(S(=O)(=O)c2cccc(-c3ccc(F)c(F)c3)n2)cc1)c1cnc2[nH]ncc2c1 [N-({4-[6-(3,4-difluorophenyl)pyridine-2-sulfonyl]phenyl}methyl)-1H-pyrazolo[3,4-b]pyridine-5-carboxamide] | 41 nM | 17.8 nM | – | – |
| COc1cc(Cl)cc(S(=O)(=O)c2ccc(CNC(=O)c3cnc4[nH]ncc4c3)cc2)c1 | 2.5 nM | – | 9.3 nM | – |

Source: patent US12336981B2, “Compounds and compositions for the inhibition of NAMPT” (Valo Health, Inc., priority 2010, dated 2025)
